# From patent publication US20050153870A1, “Medicinal composition for diagnosis, prevention, or therapy of multiple risk factor syndrome” (priority 2002, published 2005)
# Experiments:
# [1] = tested on: Rat; test: Glucogenesis in the liver; format: in vivo; settings: perorally
# Description: Compounds of this series suppresses hepatic glucogenesis which is induced by administration of dexamethazon to a rat. For this reason, it antagonizes the action of glucocorticoid in vivo. The compound further has an effect of suppressing steroid diabetes characterized by polydipsia and polyurea and urine sugar excretion induced by administering cortisol to a rat. […] These facts strongly support that compounds of this series is useful in preventing and/or treating visceral fat syndrome.
# [2] = tested on: hypercholesterolemia patients; test: Clinical test I; format: in vivo, human; settings: for Fasting blood sugar (FBS) level: 5 patients with high blood sugar
# Description: The participants consisted of 9 Caucasian males and 7 Caucasian females. They participated in Clinical test I on a voluntary basis after they signed informed consent for clinical test participation, which was proposed by a medical institution based on the Helsinki declaration.
# Their ages were 55 years old in average and ranging from 40 to 82 years old. Their average body weigh was 70.2±13.57 kg (standard deviation).
# All participants took dietary therapy for treating hypercholesterolemia. Since various medicaments were administered, the period of 8 weeks, prior to Clinical test I, was provided to stop taking all pills, thereby washing out effects of medicaments. During the period of the Clinical test I, it was not allowed to take any other medicament together with a test medicament. Patients with type II diabetes were excluded from the participants; however, 5 patients with a high blood sugar level were included in the participants. Since they were not diagnosed as diabetes, they were allowed to participate in the test. Of 16 participants, 10 patients had hypertension and 4 patients had borderline hypertension defined by WHO. Only 2 patients had normal blood pressure.
# [3] = in vivo; cited from earlier work
# [4] = tested on: patients with type II diabetes; test: Glucose tolerance test in Clinical test II; format: in vivo, human; settings: 50 g of glucose perorally at fasting; after therapy of 12 weeks vs before; 30 patients
# Experimental: A glucose tolerance test were performed by perorally taking 50 g of glucose at fasting time in the early morning and measuring concentrations of blood sugar and urine sugar with time. A solid line represents the results immediately before therapy and a broken line represents immediately after the therapy of 12 weeks. Since a process of a glucose tolerance test more or less varied depending upon medical institutions, data of all patients (30 patients) with type II diabetes participated in this test in a single and the same institution are statistically analyzed and shown. […] Note that, in the FIGS. 2 and 3, numerical values each represent average value±standard deviation.
# [5] = tested on: DOCA hypertension rat; test: Periarteritis nodosa; format: in vivo; settings: 50 mg/kg perorally, DOCA/saline administered rat having one of the kidneys excised out
# Experimental: Rats having a cardiovascular disease due to hypertension, often develop periarteritis nodosa, which is typical blood-vessel inflammation caused in thin and small artery such as mesenteric artery. […] These are preventive effects. […] To explain more specifically, mineral corticoid is administered to rats having one of the kidneys excised out and raised for a month by giving saline as drinking water. After confirming onset of periarteritis nodosa, administration of mineral corticoid and saline is stopped and the rats are brought back under normal feeding conditions. As a result, the blood pressure of the rats gradually decreases near a normal value and periarteritis nodosa heals and disappears.
# [6] = Borderline hypertensive group, 4 patients, 10th week, Placebo period after 8 weeks of medication
# [7] = Borderline hypertensive group, 4 patients, 12th week, Placebo period after 8 weeks of medication
# [8] = Hypertension group, 10 patients, 10th week, Placebo period after 8 weeks of medication
# [9] = Hypertension group, 10 patients, 12th week, Placebo period after 8 weeks of medication
smiles,measurement,setting,value
COc1c(Cl)c(C)c(C=O)c(O)c1C/C=C(C)/C=C/[C@@]1(C)[C@H](C)CCC(=O)[C@@H]1C [4-O-methylascochlorin],glucogenesis performed in the liver,[1],performed in the liver is suppressed.
same,normal blood pressure,[2]; 2 patients of normal blood pressure,does not affect normal blood pressure
same,blood sugar levels,[2]; 5 cases exhibiting high blood sugar,brought back to normal levels
same,Fasting blood sugar (FBS) level,"[2]; 1st week, 0.5 mg/kg, before medication 132.4 ± 16.0",100.0 ± 11.0 mg/dL
same,Fasting blood sugar (FBS) level,"[2]; 2nd week, 1.0 mg/kg, before medication 132.4 ± 16.0",102.0 ± 4.0 mg/dL
same,Fasting blood sugar (FBS) level,"[2]; 3rd week, 2.0 mg/kg, before medication 132.4 ± 16.0",103.6 ± 12.1 mg/dL
same,Fasting blood sugar (FBS) level,"[2]; 4th week, 4.0 mg/kg, before medication 132.4 ± 16.0",103.2 ± 11.7 mg/dL
same,Fasting blood sugar (FBS) level,"[2]; 6th week, 8.0 mg/kg, before medication 132.4 ± 16.0",98.0 ± 4.6 mg/dL
same,Fasting blood sugar (FBS) level,"[2]; 8th week, 16.0 mg/kg, before medication 132.4 ± 16.0",93.3 ± 6.1 mg/dL
same,Fasting blood sugar (FBS) level,"[2]; 10th week, Placebo period after 8 weeks of medication",93.5 ± 6.4 mg/dL
same,Fasting blood sugar (FBS) level,"[2]; 12th week, Placebo period after 8 weeks of medication",100.5 ± 11.6 mg/dL
same,Blood sugar level,"[2]; 5 patients, 6th week, 8 mg/kg",completely returns to a normal level
same,Total serum cholesterol,"[2]; 6th week, 16 folds the amount of 0.5 mg/kg",decreased to the upper limit of the normal range
same,decrease of body weight compared to before medication,"[2]; 8 weeks after the initiation of medication, P<0.001",0.9 kg
same,blood pressure of the systolic period and the diastolic period,"[2]; 10 hypertensive patients, 8th week",decreased both pressure values to normal levels
same,lowering of serum total cholesterol by medication,[2]; 16 hypercholesterolemia patients,≥ 30%
same,Total serum cholesterol,"[2]; 16 hypercholesterolemia patients, 1st week, 0.5 mg/kg, before medication 342.0 ± 61.0",272.6 ± 62.7 mg/dL
same,Total serum cholesterol,"[2]; 16 hypercholesterolemia patients, 2nd week, 1.0 mg/kg, before medication 342.0 ± 61.0",266.5 ± 66.7 mg/dL
same,Total serum cholesterol,"[2]; 16 hypercholesterolemia patients, 3rd week, 2.0 mg/kg, before medication 342.0 ± 61.0",268.7 ± 66.0 mg/dL
same,Total serum cholesterol,"[2]; 16 hypercholesterolemia patients, 4th week, 4.0 mg/kg, before medication 342.0 ± 61.0",254.2 ± 65.7 mg/dL
same,Total serum cholesterol,"[2]; 16 hypercholesterolemia patients, 6th week, 8.0 mg/kg, before medication 342.0 ± 61.0",217.4 ± 58.8 mg/dL
same,Total serum cholesterol,"[2]; 16 hypercholesterolemia patients, 8th week, 16.0 mg/kg, before medication 342.0 ± 61.0",229.5 ± 61.9 mg/dL
same,Total serum cholesterol,"[2]; 16 hypercholesterolemia patients, 10th week, Placebo period after 8 weeks of medication",255.9 ± 57.6 mg/dL
same,Total serum cholesterol,"[2]; 16 hypercholesterolemia patients, 12th week, Placebo period after 8 weeks of medication",264.0 ± 57.5 mg/dL
same,"abnormality in the serum biological test, hematocyte test, and urine test","[2]; 16 patients, 12 weeks",No abnormality ascribed to medication
same,side effect,"[2]; 16 patients, 12 weeks, 0.5 to 16.0 mg/kg, not so severe, medication continued",one case with light eruption and one case with dizziness
same,Diastolic pressure,"[2]; Borderline hypertensive group, 4 patients, 1st week, 0.5 mg/kg, before medication 87.1 ± 2.7",82.1 ± 3.9 mmHg
same,Systolic pressure,"[2]; Borderline hypertensive group, 4 patients, 1st week, 0.5 mg/kg, before medication 149.3 ± 7.9",133.6 ± 9.0 mmHg
same,Diastolic pressure,"[2]; Borderline hypertensive group, 4 patients, 2nd week, 1.0 mg/kg, before medication 87.1 ± 2.7",81.4 ± 4.8 mmHg
same,Systolic pressure,"[2]; Borderline hypertensive group, 4 patients, 2nd week, 1.0 mg/kg, before medication 149.3 ± 7.9",134.3 ± 6.7 mmHg
same,Diastolic pressure,"[2]; Borderline hypertensive group, 4 patients, 3rd week, 2.0 mg/kg, before medication 87.1 ± 2.7",81.4 ± 2.4 mmHg
same,Systolic pressure,"[2]; Borderline hypertensive group, 4 patients, 3rd week, 2.0 mg/kg, before medication 149.3 ± 7.9",134.3 ± 9.3 mmHg
same,Diastolic pressure,"[2]; Borderline hypertensive group, 4 patients, 4th week, 4.0 mg/kg, before medication 87.1 ± 2.7",80.7 ± 3.5 mmHg
same,Systolic pressure,"[2]; Borderline hypertensive group, 4 patients, 4th week, 4.0 mg/kg, before medication 149.3 ± 7.9",130.7 ± 8.9 mmHg
same,Diastolic pressure,"[2]; Borderline hypertensive group, 4 patients, 6th week, 8.0 mg/kg, before medication 87.1 ± 2.7",78.6 ± 3.8 mmHg
same,Systolic pressure,"[2]; Borderline hypertensive group, 4 patients, 6th week, 8.0 mg/kg, before medication 149.3 ± 7.9",130.7 ± 8.9 mmHg
same,Diastolic pressure,"[2]; Borderline hypertensive group, 4 patients, 8th week, 16.0 mg/kg, before medication 87.1 ± 2.7",77.9 ± 3.9 mmHg
same,Systolic pressure,"[2]; Borderline hypertensive group, 4 patients, 8th week, 16.0 mg/kg, before medication 149.3 ± 7.9",130.0 ± 8.2 mmHg
same,Diastolic pressure,[2]; [6],78.6 ± 4.8 mmHg
same,Systolic pressure,[2]; [6],130.7 ± 9.3 mmHg
same,Diastolic pressure,[2]; [7],78.6 ± 4.8 mmHg
same,Systolic pressure,[2]; [7],132.1 ± 10.4 mmHg
same,Diastolic pressure,"[2]; Hypertension group, 10 patients, 1st week, 0.5 mg/kg, before medication 91.0 ± 7.7",83.5 ± 4.7 mmHg
same,Systolic pressure,"[2]; Hypertension group, 10 patients, 1st week, 0.5 mg/kg, before medication 161.5 ± 21.1",143.5 ± 28.5 mmHg
same,Diastolic pressure,"[2]; Hypertension group, 10 patients, 2nd week, 1.0 mg/kg, before medication 91.0 ± 7.7",83.0 ± 5.4 mmHg
same,Systolic pressure,"[2]; Hypertension group, 10 patients, 2nd week, 1.0 mg/kg, before medication 161.5 ± 21.1",147.5 ± 28.5 mmHg
same,Diastolic pressure,"[2]; Hypertension group, 10 patients, 3rd week, 2.0 mg/kg, before medication 91.0 ± 7.7",84.5 ± 6.0 mmHg
same,Systolic pressure,"[2]; Hypertension group, 10 patients, 3rd week, 2.0 mg/kg, before medication 161.5 ± 21.1",147.5 ± 26.1 mmHg
same,Diastolic pressure,"[2]; Hypertension group, 10 patients, 4th week, 4.0 mg/kg, before medication 91.0 ± 7.7",85.5 ± 9.44 mmHg
same,Systolic pressure,"[2]; Hypertension group, 10 patients, 4th week, 4.0 mg/kg, before medication 161.5 ± 21.1",148.5 ± 26.8 mmHg
same,Diastolic pressure,"[2]; Hypertension group, 10 patients, 6th week, 8.0 mg/kg, before medication 91.0 ± 7.7",83.5 ± 9.44 mmHg
same,Systolic pressure,"[2]; Hypertension group, 10 patients, 6th week, 8.0 mg/kg, before medication 161.5 ± 21.1",144.5 ± 29.8 mmHg
same,Diastolic pressure,"[2]; Hypertension group, 10 patients, 8th week, 16.0 mg/kg, before medication 91.0 ± 7.7",78.1 ± 3.7 mmHg
same,Systolic pressure,"[2]; Hypertension group, 10 patients, 8th week, 16.0 mg/kg, before medication 161.5 ± 21.1",130.0 ± 7.6 mmHg
same,Diastolic pressure,[2]; [8],83.5 ± 8.8 mmHg
same,Systolic pressure,[2]; [8],145.5 ± 26.3 mmHg
same,Diastolic pressure,[2]; [9],84.0 ± 9.7 mmHg
same,Systolic pressure,[2]; [9],151.5 ± 32.4 mmHg
same,blood pressure of the hypertension group and borderline hypertension group,[2]; medication for 8 weeks,dropped to the upper limit of a normal range
same,"drop of total serum cholesterol, average",[2]; one week after 0.5 mg/kg perorally,70 mg/dL
same,Serum neutral fat,[2]; ratio of serum neutral fat/serum total cholesterol 1.2 or less (hyperlipemia type IIa),significantly decreased
same,Serum neutral fat,[2]; ratio of serum neutral fat/serum total cholesterol 1.2 or more (hyperlipemia type IIb and type IV),a significant decrease of serum neutral fat was not observed
same,distribution of the isotope-labeled compound,[3],widely and specifically distributed in the adipose tissue as well as in the adrenal gland
same,synthesis of steroid hormones (glucocorticoid+mineral corticoid) of adrenal cortex,[3],regulates synthesis of steroid hormones
same,blood sugar level in glucose tolerance test (FIG. 2),[4],significantly decreases blood sugar level
same,urine sugar level in glucose tolerance test (FIG. 3),[4],significantly decreases the concentration of glucose contained in the urine
same,Periarteritis nodosa,[5],significantly suppressed. When ascofuranone is perorally administered to SHR of a
